Measured values from ChEMBL document CHEMBL1141690, “New PPARgamma ligands based on barbituric acid: virtual screening, synthesis and receptor binding studies” (Bioorg Med Chem Lett, 2008).

Tests used:
[1] = molecular target: T1, Peroxisome proliferator-activated receptor gamma (Mus musculus) (UniProt P37238); test: Displacement of [3H]rosiglitazone from mouse PPARgamma receptor at 10 uM by scintillation proximation assay
T1 sequence (whole entry): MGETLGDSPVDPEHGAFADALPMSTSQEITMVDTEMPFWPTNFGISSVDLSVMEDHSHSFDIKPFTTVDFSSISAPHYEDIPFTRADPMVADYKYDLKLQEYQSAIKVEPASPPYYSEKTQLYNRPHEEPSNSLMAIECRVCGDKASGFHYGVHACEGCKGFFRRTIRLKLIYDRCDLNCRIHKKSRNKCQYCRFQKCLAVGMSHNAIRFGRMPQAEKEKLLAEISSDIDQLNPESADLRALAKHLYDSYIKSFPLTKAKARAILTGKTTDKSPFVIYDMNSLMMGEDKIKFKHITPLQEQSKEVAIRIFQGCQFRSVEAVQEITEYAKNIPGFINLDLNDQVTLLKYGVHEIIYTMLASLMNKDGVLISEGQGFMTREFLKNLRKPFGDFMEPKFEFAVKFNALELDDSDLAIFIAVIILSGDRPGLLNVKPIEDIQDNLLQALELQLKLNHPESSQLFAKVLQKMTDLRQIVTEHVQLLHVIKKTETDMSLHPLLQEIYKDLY

[2] = molecular target: T2, Peroxisome proliferator-activated receptor gamma (Mus musculus, UniProt P37238); test: Displacement of [3H]rosiglitazone from mouse PPARgamma receptor by scintillation proximation assay
T2 sequence (P37238 whole entry): T1 sequence (whole entry)

| Compound | inhibition [1] | IC50 [2] |
| --- | --- | --- |
| CC(C)c1ccc(OCCCOc2ccc(C=C3C(=O)NC(=O)NC3=O)cc2)cc1 | < 20% | – |
| O=C1NC(=O)C(=Cc2ccc(Oc3ccccc3)cc2)C(=O)N1 | – | 100 nM |
| O=C1NC(=O)C(=Cc2ccc(OCCOc3ccc4ccccc4c3)cc2)C(=O)N1 | < 20% | – |
| O=C1NC(=O)C(=Cc2ccc(OCCn3ccc4cccnc43)cc2)C(=O)N1 | < 20% | – |
| COc1ccc(OCCOc2ccc(C=C3C(=O)NC(=O)NC3=O)cc2)cc1 | – | 200 nM |
| Cc1ccc(OCCOc2ccc(C=C3C(=O)NC(=O)NC3=O)cc2)cc1 | < 20% | – |
| Cc1ccc(OCCOc2cccc(C=C3C(=O)NC(=O)NC3=O)c2)cc1 | – | 800 nM |
| O=C1NC(=O)C(=Cc2ccc(OCCn3c4ccccc4c4ccccc43)cc2)C(=O)N1 | < 20% | – |
| O=C1NC(=O)C(=Cc2ccc(OCCOc3ccccn3)cc2)C(=O)N1 | < 20% | – |
| O=C1NC(=O)C(=Cc2ccc(OCCOc3ccc(Br)cc3)cc2)C(=O)N1 | < 20% | – |
| N#Cc1ccc(OCCCOc2ccc(C=C3C(=O)NC(=O)NC3=O)cc2)cc1 | < 20% | – |
| N#Cc1ccc(OCCOc2ccc(C=C3C(=O)NC(=O)NC3=O)cc2)cc1 | – | 200 nM |
| O=C1NC(=O)C(=Cc2ccc(OCCOc3ccc([N+](=O)[O-])cc3)cc2)C(=O)N1 | – | 2500 nM |
| O=C1NC(=O)C(=Cc2ccc(OCCN3c4ccccc4Oc4ccccc43)cc2)C(=O)N1 | – | 500 nM |
